Experimental data reported in ChEMBL document CHEMBL5465560, “Selectivity Literature for EUbOPEN Chemogenomic Library” (2024).
Blank lines part the entries; values can stand above or below the compound they belong to.

What was measured:
[1] = target: Serine/threonine-protein kinase WNK3 (Homo sapiens) (UniProt Q9BYP7); assay: Selectivity interaction (Ambit KINOMEscan and KiNATiv profiling in Jurkat cells) EUB0000090b WNK3; type: cell-based; conditions: at 1 µM
[2] = target: T1, Serine/threonine-protein kinase haspin (Homo sapiens) (UniProt Q8TF76); assay: Selectivity interaction (KinomeScan (DiscoverX)) EUB0001550a GSG2; conditions: at 1 µM
T1 sequence (whole entry): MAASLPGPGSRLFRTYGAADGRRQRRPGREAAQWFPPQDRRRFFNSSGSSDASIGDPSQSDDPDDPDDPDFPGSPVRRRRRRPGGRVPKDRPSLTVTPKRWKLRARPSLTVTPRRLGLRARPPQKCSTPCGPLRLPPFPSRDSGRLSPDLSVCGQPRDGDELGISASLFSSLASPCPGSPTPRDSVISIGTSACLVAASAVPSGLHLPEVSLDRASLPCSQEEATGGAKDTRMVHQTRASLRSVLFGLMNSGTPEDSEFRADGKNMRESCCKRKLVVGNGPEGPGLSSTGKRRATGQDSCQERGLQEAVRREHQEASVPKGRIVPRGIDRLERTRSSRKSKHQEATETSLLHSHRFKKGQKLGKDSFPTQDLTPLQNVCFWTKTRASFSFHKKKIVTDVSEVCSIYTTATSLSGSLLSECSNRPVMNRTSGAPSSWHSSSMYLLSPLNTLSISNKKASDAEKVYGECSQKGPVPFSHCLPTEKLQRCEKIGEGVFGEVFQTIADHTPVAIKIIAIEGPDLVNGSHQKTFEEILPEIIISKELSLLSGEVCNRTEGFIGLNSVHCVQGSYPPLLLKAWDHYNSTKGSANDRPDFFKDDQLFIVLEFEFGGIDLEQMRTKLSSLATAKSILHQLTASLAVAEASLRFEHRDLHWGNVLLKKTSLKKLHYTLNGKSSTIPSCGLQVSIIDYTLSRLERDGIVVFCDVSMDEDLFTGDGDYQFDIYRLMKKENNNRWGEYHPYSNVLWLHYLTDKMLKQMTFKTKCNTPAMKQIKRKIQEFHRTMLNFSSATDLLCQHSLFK

[3] = target: T2, Ephrin type-B receptor 3 (Homo sapiens) (UniProt P54753); assay: Selectivity interaction (Kinase panel (Z-LYTE Assay)) EUB0001632a EPHB3; conditions: at 10 µM
T2 sequence (whole entry): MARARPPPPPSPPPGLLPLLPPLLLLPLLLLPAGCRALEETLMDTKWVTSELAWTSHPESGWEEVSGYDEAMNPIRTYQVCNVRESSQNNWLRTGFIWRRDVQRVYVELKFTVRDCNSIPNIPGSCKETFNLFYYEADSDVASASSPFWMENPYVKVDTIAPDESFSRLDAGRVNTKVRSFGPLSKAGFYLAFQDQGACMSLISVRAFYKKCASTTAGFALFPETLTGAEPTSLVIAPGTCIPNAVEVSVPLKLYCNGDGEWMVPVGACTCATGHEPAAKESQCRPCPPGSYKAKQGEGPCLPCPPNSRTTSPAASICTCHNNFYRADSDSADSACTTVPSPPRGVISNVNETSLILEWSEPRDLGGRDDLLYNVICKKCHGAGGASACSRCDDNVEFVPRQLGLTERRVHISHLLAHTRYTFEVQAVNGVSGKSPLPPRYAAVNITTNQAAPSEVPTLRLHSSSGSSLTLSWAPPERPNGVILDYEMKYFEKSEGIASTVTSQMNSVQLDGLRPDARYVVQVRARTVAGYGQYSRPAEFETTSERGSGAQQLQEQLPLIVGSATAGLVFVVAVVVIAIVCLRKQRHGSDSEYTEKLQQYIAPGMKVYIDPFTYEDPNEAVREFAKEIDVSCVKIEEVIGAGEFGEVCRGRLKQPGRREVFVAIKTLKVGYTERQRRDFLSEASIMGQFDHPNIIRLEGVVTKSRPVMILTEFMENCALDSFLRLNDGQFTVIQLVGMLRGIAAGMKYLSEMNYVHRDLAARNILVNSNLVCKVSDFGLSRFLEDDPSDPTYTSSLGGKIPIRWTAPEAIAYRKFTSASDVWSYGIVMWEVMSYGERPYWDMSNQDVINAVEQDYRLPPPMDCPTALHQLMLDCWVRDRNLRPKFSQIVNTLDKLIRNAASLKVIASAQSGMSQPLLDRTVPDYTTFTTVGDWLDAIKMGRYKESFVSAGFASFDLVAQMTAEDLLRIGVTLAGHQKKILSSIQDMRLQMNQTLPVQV

[4] = target: Dual specificity mitogen-activated protein kinase kinase 1 (Homo sapiens, UniProt Q02750); assay: Selectivity interaction (Kinase panel (Eurofins)) EUB0001564a MAP2K1; conditions: at 1 µM
[5] = target: Protein polybromo-1 (Homo sapiens) (UniProt Q86U86); assay: Selectivity interaction (Human bromodomain panel (DSF assay)) EUB0000233b PBRM1
[6] = target: Tyrosine-protein kinase JAK1 (Homo sapiens, UniProt P23458); assay: Selectivity interaction (KinomeScan (DiscoverX)) EUB0000045b JAK1; conditions: at 1 µM
[7] = target: T3, Activin receptor type-1 (Homo sapiens) (UniProt Q04771); assay: Selectivity interaction (KinomeScan (DiscoverX)) EUB0000607a ACVR1; conditions: at 10 µM
T3 sequence (whole entry): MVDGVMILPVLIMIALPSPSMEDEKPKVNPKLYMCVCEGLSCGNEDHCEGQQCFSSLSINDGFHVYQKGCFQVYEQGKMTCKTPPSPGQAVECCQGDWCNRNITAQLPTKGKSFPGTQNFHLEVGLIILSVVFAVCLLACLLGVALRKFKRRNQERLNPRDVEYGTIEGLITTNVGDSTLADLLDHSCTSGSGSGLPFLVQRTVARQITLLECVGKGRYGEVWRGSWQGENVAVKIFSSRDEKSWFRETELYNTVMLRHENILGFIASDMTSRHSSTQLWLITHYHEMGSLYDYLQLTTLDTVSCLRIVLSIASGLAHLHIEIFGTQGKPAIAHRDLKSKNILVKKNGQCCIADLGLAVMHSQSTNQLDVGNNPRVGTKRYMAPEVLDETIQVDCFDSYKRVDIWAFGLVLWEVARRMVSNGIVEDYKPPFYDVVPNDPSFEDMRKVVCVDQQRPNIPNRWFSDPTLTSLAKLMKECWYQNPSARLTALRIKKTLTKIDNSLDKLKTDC

Protein polybromo-1 (Homo sapiens), sequence (Q86U86 whole entry): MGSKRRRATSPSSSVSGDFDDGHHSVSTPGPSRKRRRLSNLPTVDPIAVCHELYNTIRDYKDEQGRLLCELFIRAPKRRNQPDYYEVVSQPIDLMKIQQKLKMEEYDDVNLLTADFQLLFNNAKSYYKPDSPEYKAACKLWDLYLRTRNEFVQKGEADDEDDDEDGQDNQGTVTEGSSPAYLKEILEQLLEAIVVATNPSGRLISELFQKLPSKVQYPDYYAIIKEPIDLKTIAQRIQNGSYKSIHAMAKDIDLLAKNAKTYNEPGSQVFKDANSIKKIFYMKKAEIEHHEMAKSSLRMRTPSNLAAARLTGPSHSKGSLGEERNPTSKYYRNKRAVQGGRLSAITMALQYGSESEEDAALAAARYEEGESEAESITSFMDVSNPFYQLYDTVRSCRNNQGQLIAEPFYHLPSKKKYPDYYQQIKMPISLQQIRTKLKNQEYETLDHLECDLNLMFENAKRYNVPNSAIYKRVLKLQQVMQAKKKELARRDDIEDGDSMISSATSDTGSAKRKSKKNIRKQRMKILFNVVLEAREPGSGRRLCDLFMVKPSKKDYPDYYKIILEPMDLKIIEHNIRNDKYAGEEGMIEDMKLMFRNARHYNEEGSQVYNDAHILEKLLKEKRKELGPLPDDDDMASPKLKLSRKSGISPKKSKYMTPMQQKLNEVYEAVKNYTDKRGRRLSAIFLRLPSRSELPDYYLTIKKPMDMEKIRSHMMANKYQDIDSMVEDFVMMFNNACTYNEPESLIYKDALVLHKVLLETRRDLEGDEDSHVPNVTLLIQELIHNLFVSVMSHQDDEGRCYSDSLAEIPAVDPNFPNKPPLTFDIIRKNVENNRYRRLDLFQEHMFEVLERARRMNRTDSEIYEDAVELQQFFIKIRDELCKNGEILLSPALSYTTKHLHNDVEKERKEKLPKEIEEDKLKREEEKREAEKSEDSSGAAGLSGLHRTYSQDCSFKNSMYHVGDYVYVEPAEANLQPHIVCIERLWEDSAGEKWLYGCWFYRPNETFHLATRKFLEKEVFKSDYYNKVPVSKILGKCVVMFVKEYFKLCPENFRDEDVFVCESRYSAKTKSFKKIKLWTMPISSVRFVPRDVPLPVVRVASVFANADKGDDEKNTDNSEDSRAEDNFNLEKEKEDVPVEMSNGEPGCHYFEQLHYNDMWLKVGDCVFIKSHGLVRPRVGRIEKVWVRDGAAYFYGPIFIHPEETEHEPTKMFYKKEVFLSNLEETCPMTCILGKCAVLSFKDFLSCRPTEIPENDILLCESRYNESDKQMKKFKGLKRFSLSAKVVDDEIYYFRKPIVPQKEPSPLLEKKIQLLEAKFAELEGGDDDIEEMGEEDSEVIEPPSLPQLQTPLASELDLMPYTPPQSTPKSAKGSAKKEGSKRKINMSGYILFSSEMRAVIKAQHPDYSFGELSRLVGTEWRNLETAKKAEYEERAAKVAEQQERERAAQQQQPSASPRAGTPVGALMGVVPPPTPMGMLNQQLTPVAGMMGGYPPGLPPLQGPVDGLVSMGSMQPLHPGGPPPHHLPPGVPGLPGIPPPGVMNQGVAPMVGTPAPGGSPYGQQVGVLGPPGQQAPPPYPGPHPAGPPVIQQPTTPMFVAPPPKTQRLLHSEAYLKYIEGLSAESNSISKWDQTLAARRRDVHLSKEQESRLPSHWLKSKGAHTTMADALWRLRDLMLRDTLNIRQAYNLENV
Tyrosine-protein kinase JAK1, sequence (P23458 whole entry): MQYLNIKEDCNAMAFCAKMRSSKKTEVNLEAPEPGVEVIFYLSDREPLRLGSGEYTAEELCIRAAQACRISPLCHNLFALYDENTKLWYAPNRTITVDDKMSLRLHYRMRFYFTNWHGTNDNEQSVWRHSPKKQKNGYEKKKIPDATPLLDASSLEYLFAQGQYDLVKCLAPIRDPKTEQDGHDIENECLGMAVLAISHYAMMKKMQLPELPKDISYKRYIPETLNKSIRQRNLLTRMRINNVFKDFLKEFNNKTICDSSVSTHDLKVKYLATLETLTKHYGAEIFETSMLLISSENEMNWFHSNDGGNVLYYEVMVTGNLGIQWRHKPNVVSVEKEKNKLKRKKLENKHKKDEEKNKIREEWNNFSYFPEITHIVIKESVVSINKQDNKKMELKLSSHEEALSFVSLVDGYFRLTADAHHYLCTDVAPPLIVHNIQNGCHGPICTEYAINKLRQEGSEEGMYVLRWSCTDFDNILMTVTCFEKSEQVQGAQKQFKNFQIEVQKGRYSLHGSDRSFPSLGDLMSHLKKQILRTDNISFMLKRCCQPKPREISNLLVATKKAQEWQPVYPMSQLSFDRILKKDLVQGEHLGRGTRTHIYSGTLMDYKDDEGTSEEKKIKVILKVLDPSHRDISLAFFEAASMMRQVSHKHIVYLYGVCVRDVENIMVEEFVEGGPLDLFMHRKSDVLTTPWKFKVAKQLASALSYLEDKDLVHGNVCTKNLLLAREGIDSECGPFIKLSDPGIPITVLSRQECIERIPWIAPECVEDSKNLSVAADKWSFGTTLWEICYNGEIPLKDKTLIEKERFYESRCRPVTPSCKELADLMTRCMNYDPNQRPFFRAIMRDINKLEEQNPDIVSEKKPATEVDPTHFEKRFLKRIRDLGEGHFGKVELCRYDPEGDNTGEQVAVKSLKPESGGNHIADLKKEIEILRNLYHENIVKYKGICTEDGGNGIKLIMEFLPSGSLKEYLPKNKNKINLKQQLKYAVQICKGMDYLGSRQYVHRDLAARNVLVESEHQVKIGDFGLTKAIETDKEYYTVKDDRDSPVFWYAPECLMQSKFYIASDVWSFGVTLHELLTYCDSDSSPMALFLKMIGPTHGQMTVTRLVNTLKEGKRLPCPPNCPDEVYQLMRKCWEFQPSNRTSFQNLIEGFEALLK
Serine/threonine-protein kinase WNK3 (Homo sapiens), sequence (Q9BYP7 whole entry): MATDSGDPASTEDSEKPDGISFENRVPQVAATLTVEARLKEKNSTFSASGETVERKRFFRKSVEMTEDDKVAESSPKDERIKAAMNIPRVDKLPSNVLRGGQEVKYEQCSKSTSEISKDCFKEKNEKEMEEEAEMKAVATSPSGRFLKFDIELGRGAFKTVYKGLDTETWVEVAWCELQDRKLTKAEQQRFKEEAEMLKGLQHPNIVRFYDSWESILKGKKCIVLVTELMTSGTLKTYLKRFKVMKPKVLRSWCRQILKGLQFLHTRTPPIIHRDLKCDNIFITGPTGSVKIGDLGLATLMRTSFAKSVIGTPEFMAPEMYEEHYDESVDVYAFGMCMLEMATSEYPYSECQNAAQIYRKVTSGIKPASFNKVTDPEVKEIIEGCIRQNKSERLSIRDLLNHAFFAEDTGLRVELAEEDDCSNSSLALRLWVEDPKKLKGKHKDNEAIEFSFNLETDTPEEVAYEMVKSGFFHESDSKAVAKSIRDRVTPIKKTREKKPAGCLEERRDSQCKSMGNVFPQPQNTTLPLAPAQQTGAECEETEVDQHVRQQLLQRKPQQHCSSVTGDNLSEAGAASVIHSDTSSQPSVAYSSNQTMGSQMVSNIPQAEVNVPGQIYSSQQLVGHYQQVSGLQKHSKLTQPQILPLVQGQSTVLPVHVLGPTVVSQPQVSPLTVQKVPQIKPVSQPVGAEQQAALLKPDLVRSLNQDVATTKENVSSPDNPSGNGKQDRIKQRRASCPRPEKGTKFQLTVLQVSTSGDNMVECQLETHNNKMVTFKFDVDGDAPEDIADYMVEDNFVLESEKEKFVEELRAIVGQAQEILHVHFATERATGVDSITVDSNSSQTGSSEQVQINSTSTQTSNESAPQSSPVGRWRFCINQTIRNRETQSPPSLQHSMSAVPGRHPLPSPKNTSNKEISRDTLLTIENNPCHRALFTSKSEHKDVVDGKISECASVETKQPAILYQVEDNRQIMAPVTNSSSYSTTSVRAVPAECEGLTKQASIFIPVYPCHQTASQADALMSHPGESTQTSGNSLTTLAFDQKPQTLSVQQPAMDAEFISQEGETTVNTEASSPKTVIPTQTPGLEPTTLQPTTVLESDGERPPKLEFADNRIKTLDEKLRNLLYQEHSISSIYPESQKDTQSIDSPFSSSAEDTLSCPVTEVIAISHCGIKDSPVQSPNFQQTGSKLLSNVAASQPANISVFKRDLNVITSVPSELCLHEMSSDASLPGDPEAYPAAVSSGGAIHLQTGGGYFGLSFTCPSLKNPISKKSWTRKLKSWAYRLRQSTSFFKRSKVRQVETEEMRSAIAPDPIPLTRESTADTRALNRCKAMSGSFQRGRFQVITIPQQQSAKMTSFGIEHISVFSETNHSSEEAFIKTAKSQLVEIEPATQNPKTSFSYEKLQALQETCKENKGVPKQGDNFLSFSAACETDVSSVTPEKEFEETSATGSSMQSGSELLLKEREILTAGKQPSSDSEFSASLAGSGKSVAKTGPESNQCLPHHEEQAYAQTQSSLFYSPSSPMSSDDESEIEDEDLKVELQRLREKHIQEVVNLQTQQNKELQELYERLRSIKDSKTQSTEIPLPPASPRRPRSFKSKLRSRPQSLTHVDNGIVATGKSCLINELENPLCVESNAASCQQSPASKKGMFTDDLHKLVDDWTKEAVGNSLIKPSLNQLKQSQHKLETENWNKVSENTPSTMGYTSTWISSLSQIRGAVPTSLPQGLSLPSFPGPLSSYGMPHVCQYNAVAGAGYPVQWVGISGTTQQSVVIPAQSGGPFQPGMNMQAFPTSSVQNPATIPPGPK
Dual specificity mitogen-activated protein kinase kinase 1, sequence (Q02750 whole entry): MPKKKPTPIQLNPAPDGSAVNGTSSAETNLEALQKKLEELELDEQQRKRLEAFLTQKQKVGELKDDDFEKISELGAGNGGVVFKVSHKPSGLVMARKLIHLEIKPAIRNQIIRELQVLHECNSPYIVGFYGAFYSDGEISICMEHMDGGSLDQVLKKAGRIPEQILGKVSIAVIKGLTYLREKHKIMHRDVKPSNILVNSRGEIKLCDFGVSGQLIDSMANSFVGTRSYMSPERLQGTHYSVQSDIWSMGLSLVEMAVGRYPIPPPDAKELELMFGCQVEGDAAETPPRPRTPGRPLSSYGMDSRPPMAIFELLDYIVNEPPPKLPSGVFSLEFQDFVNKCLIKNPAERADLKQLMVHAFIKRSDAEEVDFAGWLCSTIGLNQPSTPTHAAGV

SMILES: CN(C)C/C=C/C(=O)Nc1ccc(C(=O)N2CCCC(Nc3ncc(Cl)c(-c4c[nH]c5ccccc45)n3)C2)cc1 (configuration not stated)
% of control [1]: 89%

% of control [2]: 13%
SMILES: CN(C)CC#Cc1ccc2[nH]c3c(c2c1)-c1nc(N)ncc1CCC3

% of control [3]: 2.4%
SMILES: Cn1cc(-n2cnc3c(NCc4nc5cc(Cl)c(Cl)cc5[nH]4)nc(N4CCOCC4)nc32)cn1

% of inhibition [4]: 21.5%
SMILES: CC[C@@H](Nc1c(C#N)c(-c2ccc(-c3cccc(C)c3F)cc2)nc2cnccc12)C(=O)O [BAY-091]

dTM [5]: < 2 K
SMILES: CN(C)CCCOc1ccc(-c2cc(NCCCn3cccn3)nc(S(C)(=O)=O)n2)cc1

SMILES: C=CC(=O)Nc1cc(-n2c(=O)ccc3cnc4ccc(-c5ccc(NS(C)(=O)=O)cc5)cc4c32)ccc1C
% of control [6]: 99%

SMILES: CNC(=O)Nc1ccc(-c2nc(N3CC4CCC(C3)O4)c3cnn(C4CCC5(CC4)OCCO5)c3n2)cc1
% of control [7]: 90%
